The values below come from patent US8609432B2, “Method and kit for detection of autoimmune chronic urticaria” (priority 2005, dated 2013).

Experiment [1] concerns basophils, CD63 expression. Conditions: cited from earlier work.
Experiment [2] relates to basophils, CD203c expression. Conditions: cited from earlier work.
The subject of experiment [3] is basophils (CD203c/IgE positive cells) in donor whole blood. Briefly: Measurement of CD203c surface expression on donor basophils by flow cytometry. The format is cell-based, human. As to conditions: positive controls, donor heparinized whole blood incubated 10 minutes at 37° C.; above buffer baseline; mean ±SEM, n=4. The method, then: Whole blood from seven normal individuals was screened and one donor was identified based on the marked upregulation of CD203c on basophils (CD203c/IgE positive cells) in response to fMLP and anti-FcεRIα antibody.
The test was carried out on heparinized blood within 3-4 hours after drawing the donor's blood. Two hundred μL aliquots of the donor's heparinized whole blood were incubated for 10 minutes at 37° C. with 40 μL of sera from CU patients, normal controls, or IgG depleted sera. For controls, 40 μL basophil stimulation buffer (20 mM HEPES, 125 mM NaCl, 5 mM KCl, 2.5 mM CaCl2, 1 mM MgCl2, 0.5 mM glucose, and 0.1% BSA, pH 7.4) was added to 200 μL of donor's blood and used as the negative control while 40 μL of […] f-Met-Leu-Phe (fMLP, Sigma, St. Louis, Mo.) and 40 μL of a 1:50 dilution of anti-FcεRIα receptor antibody (Upstate, Charlottesville, Va.) in Ca++ and Mg++ free phosphate buffered saline (PBS) were used as positive controls. […] The cells were then analyzed on a FACSCalibur flow cytometer (Becton Dickinson, San Jose, Calif.).
Basophils from whole blood were identified by the presence of CD203c on high expressing IgE positive cells (FIGS. 1A and 1B). The data are expressed as the mean fluorescence intensity or the percentage of CD203c expression. […] This was determined by defining an M1 region on the histogram analysis (FIG. 1C).
(In general: A flow cytometer gives signals particle by particle.)

Regarding `CCCCC[C@H](O)/C=C/[C@H]1C(=O)C[C@H](O)[C@@H]1C/C=C\CCCC(=O)O` [PGD2], in experiment [1], the “stimulation of CD63 expression” value was “does not stimulate”. Moreover, in experiment [2], the “induction of CD203c expression” value is listed as “strong inducer”.
For f-Met-Leu-Phe [fMLP], in experiment [3], the “mean percent basophil CD203c expression” value is reported as 34.5%±14.6.
